{"source": "patent EP0075104A2", "about": "“Cephalosporin derivatives, process for their preparation, pharmaceutical compositions containing them and intermediates” (F. HOFFMANN-LA ROCHE & CO. Aktiengesellschaft, priority 1981, dated 1983)", "key": {"Serratia marcescens": {"system": "Serratia marcescens", "assay": "Oral curative dose (CD50) in infected mice, Serratia marcescens", "type": "in vivo", "details": "Maus, p.o., Erreger Serratia marcescens, dose at which 50% of the tested mice survive", "source_text": "(§1) Die orale antimikrobielle Wirksamkeit der erwähnten Produkte kann anhand von in-vivo-Versuchen an der Maus nachgewiesen werden. Im nachstehenden bedeutet die kurative Dosis (CD50, p.o., mg/kg) diejenige perorale Dosis, bei der 50% der getesteten Mäuse überleben.\n(§2) Ergebnis (CD50, p.o. mg/kg)"}, "Escherichia coli": {"system": "Escherichia coli", "assay": "Oral curative dose (CD50) in infected mice, Escherichia coli", "type": "in vivo", "details": "Maus, p.o., Erreger Escherichia coli, dose at which 50% of the tested mice survive", "source_text": "as §1, §2"}, "Klebsiella pneumoniae": {"system": "Klebsiella pneumoniae", "assay": "Oral curative dose (CD50) in infected mice, Klebsiella pneumoniae", "type": "in vivo", "details": "Maus, p.o., Erreger Klebsiella pneumoniae, dose at which 50% of the tested mice survive", "source_text": "as §1, §2"}, "Streptococcus pyogenes": {"system": "Streptococcus pyogenes", "assay": "Oral curative dose (CD50) in infected mice, Streptococcus pyogenes", "type": "in vivo", "details": "Maus, p.o., Erreger Streptococcus pyogenes, dose at which 50% of the tested mice survive", "source_text": "as §1, §2"}, "in vivo": {"assay": "in vivo", "details": "mouse, po"}}}
{"smiles": "CCCCn1c(SCC2=C(C(=O)OCOC(=O)C(C)(C)C)N3C(=O)[C@@H](NC(=O)/C(=N\\OC)c4csc(N)n4)[C@H]3SC2)nnc1C(=O)OC", "note": "[Produkt E, Methylen-(6R,7R)-[(Z)-(2-Amino-4-thiazolyl)-2-(methoxyimino)-acetamido]-3-[[[4-(n-butyl)-5-(methoxycarbonyl)-4H-1,2,4-triazol-3-yl]-thio]methyl]-8-oxo-5-thia-1-azabicyclo[4.2.0]-oct-2-en-2-carboxylat-pivalat]", "values": [{"measurement": "ED50", "setting": "Serratia marcescens", "value": 37, "unit": "mg/kg"}, {"measurement": "ED50", "setting": "Escherichia coli", "value": 1.1, "unit": "mg/kg"}, {"measurement": "ED50", "setting": "Klebsiella pneumoniae", "value": "> 12", "unit": "mg/kg"}, {"measurement": "ED50", "setting": "Streptococcus pyogenes", "value": 3.5, "unit": "mg/kg"}]}
{"smiles": "CO/N=C(\\C(=O)N[C@@H]1C(=O)N2C(C(=O)OCOC(=O)C(C)(C)C)=C(CSc3nc(C(=O)OC)n(C(C(=O)OCOC(=O)C(C)(C)C)c4ccccc4)n3)CS[C@H]12)c1csc(N)n1", "note": "(stereo partly drawn) [Produkt B, Methylen-(6R,7R)-7-C(Z)-2-(2-Amino-4-thiazolyl)-2-(methoxyimino)-acetamido]-3-[[[5-(methoxycarbonyl)-1-[(DL)-α-[[(pivaloyloxy)-methoxy]carbonyl]benzyl]-1H-1,2,4-triazol-3-yl]thio]methyl]-8-oxo-5-thia-1-azabicyclo-[4.2.0]oct-2-en-2-carboxylat-pivalat]", "values": [{"measurement": "ED50", "setting": "Serratia marcescens", "value": "> 25", "unit": "mg/kg"}, {"measurement": "ED50", "setting": "Escherichia coli", "value": 5.5, "unit": "mg/kg"}, {"measurement": "ED50", "setting": "Klebsiella pneumoniae", "value": "> 25", "unit": "mg/kg"}, {"measurement": "ED50", "setting": "Streptococcus pyogenes", "value": "> 6", "unit": "mg/kg"}]}
{"smiles": "CO/N=C(\\C(=O)N[C@@H]1C(=O)N2C(C(=O)OCOC(=O)C(C)(C)C)=C(CSc3nc(C(=O)OC)n(-c4ccccc4)n3)CS[C@H]12)c1csc(N)n1", "note": "[Produkt C, Methylen-(6R,7R)-7-[(Z)-2-(2-Amino-4-thiazolyl)-2-(methoxyimino)-acetamido]3-[[[5-(methoxycarbonyl)-1-phenyl-lH-1,2,4-triazol-3-yl]thio]methyl]-8-oxo-5-thia-1-azabicyclo-[4.2.0]oct-2-en-2-carboxylat-pivalat]", "values": [{"measurement": "ED50", "setting": "Serratia marcescens", "value": "> 25", "unit": "mg/kg"}, {"measurement": "ED50", "setting": "Escherichia coli", "value": 1.8, "unit": "mg/kg"}, {"measurement": "ED50", "setting": "Klebsiella pneumoniae", "value": "> 12", "unit": "mg/kg"}, {"measurement": "ED50", "setting": "Streptococcus pyogenes", "value": 2.4, "unit": "mg/kg"}, {"measurement": "LD50 at 24 h", "setting": "in vivo", "value": "> 5000", "unit": "mg/kg"}]}
{"smiles": "C=CCn1c(SCC2=C(C(=O)OCOC(=O)C(C)(C)C)N3C(=O)[C@@H](NC(=O)/C(=N\\OC)c4csc(N)n4)[C@H]3SC2)nnc1C(=O)OC", "note": "[Produkt D]", "values": [{"measurement": "ED50", "setting": "Serratia marcescens", "value": 3.6, "unit": "mg/kg"}, {"measurement": "ED50", "setting": "Escherichia coli", "value": 0.11, "unit": "mg/kg"}, {"measurement": "ED50", "setting": "Klebsiella pneumoniae", "value": "> 12", "unit": "mg/kg"}, {"measurement": "ED50", "setting": "Streptococcus pyogenes", "value": 1.3, "unit": "mg/kg"}, {"measurement": "LD50 at 24 h", "setting": "in vivo", "value": "> 5000", "unit": "mg/kg"}]}
{"smiles": "CO/N=C(\\C(=O)N[C@@H]1C(=O)N2C(C(=O)OCOC(=O)C(C)(C)C)=C(CSc3nnc(C(=O)OC)n3C)CS[C@H]12)c1csc(N)n1", "note": "[Produkt A, Methylen-(6R,7R)-7-[(Z)-2-(2-Amino-4-thiazolyl)-2-(methoxyimino)-acetamido]-3-[[[5-(methoxycarbonyl)-4-methyl-4H-1,2,4-triazol-3-yl]thio]methyl]-8-oxo-5-thia-l-azabicyclo-[4.2.0]oct-2-en-2-carboxylat-pivalat]", "values": [{"measurement": "ED50", "setting": "Escherichia coli", "value": 0.11, "unit": "mg/kg"}, {"measurement": "ED50", "setting": "Klebsiella pneumoniae", "value": 4.4, "unit": "mg/kg"}, {"measurement": "ED50", "setting": "Streptococcus pyogenes", "value": 1.8, "unit": "mg/kg"}, {"measurement": "LD50 at 24 h", "setting": "in vivo", "value": "> 5000", "unit": "mg/kg"}]}
